# Measurements reported in article PMC9272937, “Anti-breast cancer sinomenine derivatives via mechanisms of apoptosis induction and metastasis reduction” (Journal of Enzyme Inhibition and Medicinal Chemistry, 2022).
# Key:
# [1] = test system: human lung cancer cell line A549; test: CCK-8 antiproliferative assay, A549; format: cell-based; conditions: Homo sapiens, A549; CCK-8, 48 h, mean ± SD of three experiments
# Procedure: (§1) The antiproliferative activities of target compounds were examined by CCK-8 assay in three cancer cells (human lung cancer cell line A549, human mammary gland tumour cell line MCF-7 and human TNBC cell line MDA-MB-231) and one normal cell (human normal breast cell line MCF10A). All cell lines were sourced from KeyGEN Biotech, […], China, and a standard DMEM medium was applied to all cell cultures then subjected to 24 h incubation at 37 °C in a humidified environment with 5% CO2. After that logarithmic growing cells were plated on 96-well plates with 8,000 cells per well in a […] medium for 24 h incubation at 37 °C with 5% CO2. The DMEM medium with bovine serum was removed from each well. Then, prerequisite target compounds and positive controls were added to different cell lines in a predetermined concentration regiment for 48 h culture.
# [2] = test system: human mammary gland tumour cell line MCF-7; test: CCK-8 antiproliferative assay, MCF-7; format: cell-based; conditions: for IC50: Homo sapiens, MCF7, 48 h, read-out: IC50 MCF-7; for SI MCF-7 (selectivity index): SI = IC50(MCF-10A)/IC50(MCF-7)
# Procedure: as §1
# [3] = test system: human TNBC cell line MDA-MB-231; test: CCK-8 antiproliferative assay, MDA-MB-231; format: cell-based; conditions: for IC50: Homo sapiens, MDA-MB-231, 48 h, read-out: IC50 MDA-MB-231; for SI MDA-MB-231 (selectivity index): SI = IC50(MCF-10A)/IC50(MDA-MB-231)
# Procedure: as §1
# [4] = test system: human normal breast cell line MCF10A; test: CCK-8 assay, normal cells MCF10A; format: cell-based; conditions: MCF-10A, CCK-8, 48 h, mean ± SD of three experiments
# Procedure: as §1
# [5] = Griess assay, NO-releasing capacity; conditions: 10^−4 mol/l compound, L-cysteine, 37 °C; for NO peak releasing: 15-180 min
# Procedure: The NO-releasing capacity of each target compound was determined by the colorimetric method under the instructions of the manufacturer. Preparation of standard curves of 0, 1.56, 3.13, 6.25, 12.5, 25, 50 and 100 μmol/L nitrite nitrogen series standard solution was prepared. 50 μL to 96-well plate was added respectively and then mixed with 50 μL Griess I and Griess II; the absorption value was measured at 540 nm wavelength. A standard curve was drawn from the obtained data. Compounds were formulated into 10^−4 mol/l with PBS (pH = 7.4) and pharmaceutical DMSO. The newly formulated L-cysteine solution 100 μL ([…]) was added and incubated at 37 °C for 15, 30, 45, 60, 90, 120, 150 and180 min, respectively. Griess I and II recovered to room temperature, 50 μL of compounds 7A–E(a–c) were added respectively into the 96-well plate, and then 50 μL of Griess I and 50 μL of Griess II were added in sequence, with the absorbance tested at 540 nm. The amount of NO released was then calculated according to the standard curve.
# [6] = test system: MDA-MB-231 cells; test: Cell cycle analysis (PI staining, flow cytometry); format: cell-based, human; conditions: 72 h; for share of S phase in cell cycle: control 45.39%
# Procedure: This assay was conducted on 6-well plates with 200,000 MDA-MB-231 cells per well and incubated for 24 h at 37 °C with 5% CO2, then the medium from each well was removed and treated by 7Cc in different concentrations (0, 0.41, 0.82, 1.64 μM) for additional 72 h incubation. The desired cell suspension was acquired after attached cells were digested then collected and washed in terms. Cell suspension was then subjected to fixation via 70% ethanol and washed with phosphate-buffered solution (PBS), incubated with 100 μL Rnase A, and placed on water bathed for half an hour at 37 °C. For the final step, 400 μL PI was applied to the mixture in a dark environment at 4 °C for 30 min. Then the distribution of DNA content was measured by flow cytometry (FACS Calibur Becton-Dickinson, Franklin Lake, NJ).
# [7] = test system: MDA-MB-231 cells; test: Cell apoptosis assay (annexin V-FITC/PI, flow cytometry); format: cell-based, human; conditions: 72 h, negative control 5.98%
# Procedure: This assay was performed on 6-well plates with 200,000 MDA-MB-231 cells per well and incubated for 24 h at 37 °C with 5% CO2, then the medium from each well was removed and treated by 7Cc in different concentrations (0, 0.41, 0.82, 1.64 μM) for additional 72 h incubation. Subsequently, 500 μL of binding buffer was applied to suspend and collect compound treated cells. Then, 5 μL of both annexin V-fluorescein isothiocyanate (Annexin V-FITC) and propidium iodide (PI) was applied to the mixture and this reaction was placed under total dark at room temperature for 10 min. Cell apoptosis was examined by flow cytometry.
# [8] = test system: MDA-MB-231 cells; test: Mitochondrial membrane potential assay (JC-1, flow cytometry); format: cell-based, human; conditions: 48 h, control 3.67%
# Procedure: Briefly, MDA-MB-231 cells in logarithmic growth were placed in 6-well plates with 200,000 cells per well for 24 h before a medium remove and then incubated with 7Cc at predetermined concentrations (0, 0.41, 0.82, 1.64 μM) for 48 h. Cells were collected after and washed with PBS. JC-1 dye was added to cells for staining under total dark conditions according to the manufacturer's instructions (KGA601, KeyGEN Biotech, Nanjing, China). The percentage of cells with collapsed mitochondrial membrane potentials was detected by flow cytometry.
# [9] = test system: MDA-MB-231 cells; test: Wound healing assay; format: cell-based, human; conditions: 0.41, 0.82, 1.64 μM, 24 h
# Procedure: In this assay, 6-well plates with 200,000 cells per well were used for the culture of MDA-MB-231 cells at 37 °C for 24 h and the medium of each well was removed. Then, 7Cc at predetermined concentrations (0, 0.41, 0.82, 1.64 μM) was added to the cell culture for incubation. After that, sterile pipette tips were utilised to scratch cell culture in 6-well plates in an even fashion, and detached cells were washed away by PBS with culture medium replaced anew afterward. After 24 h of additional incubation, cell cultures were photographed and migration distance examined accurately.
# [10] = test system: MDA-MB-231 cells; test: Transwell assay; format: cell-based, human; conditions: 0.41, 0.82, 1.64 μM, 24 h, concentration-dependent
# Procedure: Then, cells attached to the upper surface of the membrane were removed while migrated or invaded cells of the lower membrane surface were added 0.1% crystal violet staining for 30 min. Then, migrated or invaded cells of the lower chamber were photographed and counted.
# [11] = test system: MDA-MB-231 cells; test: Adhesion assay; format: cell-based, human; conditions: 0.41, 0.82, 1.64 μM, 72 h, dose-dependent
# Procedure: MDA-MB-231 cells were incubated in different plates and then treated with 7Cc in different concentrations (0, 0.41, 0.82, 1.64 μM) for 72 h. After that, the CAM ([…]) stain treated serum-free medium was applied and 96-well plates were seeded with 100 μL already prepared cell suspension at 2,000 cells per good concentration for an hour. Then, plates were washed by PBS, fixed via 3.7% formaldehyde, another PBS wash, and photographed by fluorescence microscope.
# [12] = test system: MDA-MB-231 cells; test: Comet assay (DNA damage); format: cell-based, human; conditions: 0.41, 0.82, 1.64 μM, 72 h, MDA-MB-231, neutral comet assay
# Procedure: All DNA damage sustained in this assay was measured via Comet Assay Kit (Keygen, Nanjing, China) according to the manufacturer’s instructions. 7Cc was added to MDA-MB-231 cells at predetermined concentrations (0, 0.41, 0.82, 1.64 μM) for 72 h. These cells were then collected and fixed on CometSlide at 4 °C for 15 min. After that, the cells were set under lysis solution at 4 °C for 90 min and these slides were electrophoresed for 20 min, fixed in ethanol for 5 min, and then stained with Vista Green DNA Dye. The final results were acquired by a fluorescence microscope.
SMILES,IC50 [1],IC50 [2],SI MCF-7 (selectivity index) [2],IC50 [3],SI MDA-MB-231 (selectivity index) [3],IC50 [4],NO peak releasing [5],other results
"COC1=CC2[C@H]3Cc4ccc(OC)c(OC(=O)c5ccccc5C(=O)OCCCCOc5no[n+]([O-])c5S(=O)(=O)c5ccccc5)c4[C@@]2(CCN3C)CC1=O (stereo partly drawn) [7Cc, 4–(4-((2-((((4bs,9R)-3,7-Dimethoxy-11-methyl-6-oxo-6,8a,9,10-tetrahydro-5H-9,4b-(epiminoethano)phenanthren-4-yl)oxy)carbonyl)benzoyl)oxy)butoxy)-3-(phenylsulfonyl)-1,2,5-oxadiazole 2-oxide]",1.94 ± 0.05 µM,1.75 ± 0.15 µM,15.73,0.82 ± 0.02 µM,33.57,27.5 ± 2.34 µM,–,"time at which top volume of NO released was reached [5]: 90 min; NO release at 180 min ([5]; 180 min): 39.27 µmol/L; share of S phase in cell cycle ([6]; 0.41 μM): 49.10%; share of S phase in cell cycle ([6]; 0.82 μM): 57.27%; share of G2 phase in cell cycle ([6]; 1.64 μM, control 10.09%): 5.76%; share of G1 phase in cell cycle ([6]; 1.64 μM, control 44.52%): 30.09%; share of S phase in cell cycle ([6]; 1.64 μM): 64.15%; apoptotic portions of cells (two quadrants from the right side) ([7]; 0.41 μM): 16.66%; apoptotic portions of cells (two quadrants from the right side) ([7]; 0.82 μM): 26.62%; apoptotic portions of cells (two quadrants from the right side) ([7]; 1.64 μM): 53.28%; percentage of cells with collapsed mitochondrial membrane potential (JC-1) ([8]; 0.41 μM): 16.40%; percentage of cells with collapsed mitochondrial membrane potential (JC-1) ([8]; 0.82 μM): 31.01%; percentage of cells with collapsed mitochondrial membrane potential (JC-1) ([8]; 1.64 μM): 49.98%; migration (wound closure) [9]: inhibited migration; invasion (cells permeated through transwell membrane) [10]: notably reduced the number of cells permeated through the membrane; cellular adhesion [11]: clear prevention of TNBC cellular adhesion; DNA damage (double-strand DNA breaks, comet tail) [12]: significant presence of endogenous DSBs was observed"
"COC1=CC2[C@H]3Cc4ccc(OC)c(OC(=O)CCC(=O)OCCOc5no[n+]([O-])c5S(=O)(=O)c5ccccc5)c4[C@@]2(CCN3C)CC1=O (stereo partly drawn) [7Aa, 4–(2-((4-(((4bs,9R)-3,7-Dimethoxy-11-methyl-6-oxo-6,8a,9,10-tetrahydro-5H-9,4b-(epiminoethano)phenanthren-4-yl)oxy)-4-oxobutanoyl)oxy)ethoxy)-3-(phenylsulfonyl)-1,2,5-oxadiazole 2-oxide]",15.2 ± 1.37 µM,26.4 ± 1.25 µM,>1.89,31.5 ± 2.77 µM,>1.58,> 50 µM,exceeding 40 μmol/L,–
"COC1=CC2[C@H]3Cc4ccc(OC)c(OC(=O)c5ccccc5C(=O)OCCOc5no[n+]([O-])c5S(=O)(=O)c5ccccc5)c4[C@@]2(CCN3C)CC1=O (stereo partly drawn) [7Ac, 4–(2-((2-((((4bs,9R)-3,7-Dimethoxy-11-methyl-6-oxo-6,8a,9,10-tetrahydro-5H-9,4b-(epiminoethano)phenanthren-4-yl)oxy)carbonyl)benzoyl)oxy)ethoxy)-3-(phenylsulfonyl)-1,2,5-oxadiazole 2-oxide]",2.33 ± 0.15 µM,5.87 ± 0.42 µM,3.67,1.62 ± 0.15 µM,13.30,21.5 ± 0.88 µM,exceeding 40 μmol/L,–
